Test system: MCF-7 cells
Assay: Western blot analysis of protein expression
Type: cell-based, human
Protocol: Total protein was extracted from treated and untreated cells using lysis buffer (10 mM Tris-HCl (pH 7.5), 1 mM EDTA, 1% Triton X-100, 150 mM NaCl, 1 mM dithiothretol, 10% glycerol, 0.2 mM phenylmethysulphonyl fluoride and protease inhibitors) for 30–50 min on ice. The extracts were centrifuged at 13,000× g for 15 min at 4 °C to remove cell debris. Folin Lowry (Pierce, Grand Island, NY, USA) protein assay was used to figure the protein concentration in the cell lysates. Proteins were resolved by electrophoresis on 8%–10% sodium dodecyl sulphate-polycrylamide gel loading equal amount of proteins per lane. The resolved proteins were transferred onto polyvinylidene difluoride (PVDF) membrane and then probed with primary antibody against the protein of interest prepared in 5% milk/PBS-T. The membrane was washed using phosphate buffer saline with Tween 20 (PBS-T) and then appropriate secondary antibody conjugated to horseradish peroxidase (HRP) was used for visualization of the bands using ECL chemiluminescence kit (GE, Fairfield, CT, USA). Anti-p27, anti-CDK2, anti-CDK4, anti-(p21), anti-(p53), anti-Bax, anti-Akt, anti-Bcl-2, anti-MDM2, anti-cytochrome C, anti-caspase-8, anti-procaspase-8, anti-FAS, anti-VEGF, anti-MMP-9, anti-β-catenin were purchased from SantaCruz (Dallas, TX, USA). Pixel density of the proteins studied was calculated using Image J, version 1.41o, NIH (Bethesda, MD, USA). The values obtained were first normalized to loading control β-actin and the fold change was measured by normalizing to that of the control (0 h) value. At least two independent experiments were performed.

Compound: COc1ccc(-c2cc(-c3ccc(OC)c(OC)c3)c(C#N)c(OCC(=O)NNC(=O)c3ccccc3)n2)cc1OC [Compound 9a, N'-[2-(3-cyano-4,6-bis(3,4-dimethoxyphenyl)pyridin-2-yloxy)acetyl]benzohydrazide]
- expression of CDK2 (2 μM, 24 h): decreased
- expression of CDK4 (2 μM, 24 h): decreased
- expression of MMP-9 (2 μM, 24 h): significantly inhibited
- expression of VEGF (2 μM, 24 h): significantly inhibited
- expression of caspase-3 (2 μM, 24 h): up-regulated
- expression of p27 (2 μM, 24 h): increased
- level of Akt (2 μM, 24 h): decreased
- level of Bcl-2 protein (2 μM, 24 h): decreased
- level of MDM2 (2 μM, 24 h): decreased
- level of procaspase 3 (2 μM, 24 h): decreased
- expression of cytochrome c in cytoplasm (2 μM, 24 h, cytosol fraction): increased
- expression of cytochrome c in mitochondria (2 μM, 24 h, mitochondrial fraction): reduced
- level of Bax (2 μM, 24 h, vs untreated cells): increased
- level of p21 (2 μM, 24 h, vs untreated cells): increased
- level of p53 (2 μM, 24 h, vs untreated cells): increased
- expression of phospho AKT (0.5, 1 and 2 μM, 24 h): reduced the expression of phospho AKT and β-catenin in dose-dependent manner
- expression of β-catenin (0.5, 1 and 2 μM, 24 h): reduced the expression of phospho AKT and β-catenin in dose-dependent manner
- expression of FAS (treated vs untreated): no significant change
- expression of caspase-8 (treated vs untreated): no significant change
- expression of procaspase-8 (treated vs untreated): no significant change

— PMC6274259, “New 3-Cyano-2-Substituted Pyridines Induce Apoptosis in MCF 7 Breast Cancer Cells” (Molecules, 2016)
